Measurements taken from patent US20240336630A1, “MAP4K1 INHIBITORS” (Blueprint Medicines Corporation, priority 2021, published 2024).

How the values were obtained:
[1] = target: T1, MAP4K1 (HPK1) (Homo sapiens, UniProt Q92918); assay: Inhibition of MAP4K1 biochemical enzymatic activity (EZReader 2 electrophoretic mobility shift); conditions: HPK1 (Invitrogen), S6K2tide 1.5 μM, 120 min; ATP 26 μM or 1000 μM, not stated which for Table 3
T1 construct: purchased Invitrogen
Source text: MAP4K1 (HPK1) and relevant off-target enzymatic activity was monitored using the Perkin Elmer electrophoretic mobility shift technology platform—the EZReader 2. […] Within the linear, steady-state phase of the kinase enzymatic reaction, the mixed pool of phosphorylated (product) and non-phosphorylated (substrate) peptides was passed through the microfluidic system of the PerkinElmer EZ Reader 2, under an applied electric potential difference. The presence of the phosphate group on the product peptide provided a difference in mass and charge between that of the substrate peptide, resulting in a separation of the substrate and product pools in the sample (Perrin et al. 2010). As the product and substrate peptide mixture passes the lasers within the instrument, these pools are detected (λex=488 nm, λem=568 nm) and resolved as separate peaks. The ratio between these peaks reflects the activity of the compound at that concentration, in that well, under those conditions.
Inhibitors were dissolved in 100% DMSO at a stock concentration of 10 mM. A 100×, 10-point, 4-fold serial dilution of each inhibitor was created in 100% DMSO either manually or on a Hamilton STAR liquid handler, starting at a relevant concentration, usually 1 mM. A volume of 0.130 μL of each concentration was transferred to the relevant wells of a 384-well plate (Greiner 781 201) in duplicate using a TTPLabtech Mosquito nano-litre dispenser. Using a Multidrop Combi, the remaining constituents of the kinase reaction were added to the 130 nL of dosed compound as follows (see table below for final reaction details):
Enzyme activity assays at the ^APPKM for ATP or 1 mM ATP: In each well of a 384-well plate, 0.1-15 nM of untreated enzyme was incubated in a total of 13 μL of buffer (100 mM HEPES pH 7.5, 0.015% Brij 35, 10 mM MgCl2, 1 mM DTT) with 1.5 μM fluorescent peptide and 20-1000 μM ATP, at 25° C., for 60-180 minutes in the presence or absence of a dosed concentration series of compound (1% DMSO final concentration). The kinase reactions were stopped by the addition of 70 μl of Stop buffer (100 mM HEPES pH 7.5, 0.015% Brij 35, 35 mM EDTA and 0.2% of Coating Reagent 3 (Caliper Lifesciences)). The plates were read on a Caliper EZReader 2 as described above.

[2] = tested on: Primary T Cell (expanded CD3+ T cells); assay: T cell enhancement of cytokines: IL2 measurement (HTRF) in expanded CD3+ T cells stimulated with anti-CD3/anti-CD28; format: cell-based; conditions: Homo sapiens, plate-bound anti-CD3 and soluble anti-CD28, 24 h, read-out: IL-2 Primary T Cell EC50
Method: T cells are isolated from whole blood of healthy donors by immunomagnetic negative selection following manufacture's protocol (StemCell Technologies, human T cell isolation kit). Purity of isolated cells is assessed by flow cytometry and yields 95-98% CD3^+ T cells. For expansion of T cells, 1×10^6 cells/well are plated in serum free cell expansion media (ThermoFisher) containing 30U of recombinant human IL2 (R&D) and stimulated with 25 ul of CD3/CD28 beads (Invitrogen) in 24 well plates for 3-4 days. T cells are then expanded in 175 cm flasks and maintained at a cell density of 1 to 2.5×10^6 cells/ml days by addition of ⅔ of fresh media every 2-3 days. After 10-14 days, cells are frozen in BamBanker freezing media (Thermo) and stored in liquid nitrogen.
For IL2 measurement, expanded CD3^+ T cells are dispensed at 100K cells/well (cultured in X-VIVO 10 Serum-free media) and are stimulated with plate-bound anti-CD3 and soluble anti-CD28 in the presence of vehicle or compound of the disclosure at various concentrations for 24 h. As outlined in the manufacturer's protocol (Cisbio), 16 μL of conditioned media is transferred to a white 384-well low volume plate. Following a 24 h incubation with the anti-IL2 antibodies, the homogenous time resolved fluorescence (HTRF) is measured.

T1 sequence (Q92918 whole entry): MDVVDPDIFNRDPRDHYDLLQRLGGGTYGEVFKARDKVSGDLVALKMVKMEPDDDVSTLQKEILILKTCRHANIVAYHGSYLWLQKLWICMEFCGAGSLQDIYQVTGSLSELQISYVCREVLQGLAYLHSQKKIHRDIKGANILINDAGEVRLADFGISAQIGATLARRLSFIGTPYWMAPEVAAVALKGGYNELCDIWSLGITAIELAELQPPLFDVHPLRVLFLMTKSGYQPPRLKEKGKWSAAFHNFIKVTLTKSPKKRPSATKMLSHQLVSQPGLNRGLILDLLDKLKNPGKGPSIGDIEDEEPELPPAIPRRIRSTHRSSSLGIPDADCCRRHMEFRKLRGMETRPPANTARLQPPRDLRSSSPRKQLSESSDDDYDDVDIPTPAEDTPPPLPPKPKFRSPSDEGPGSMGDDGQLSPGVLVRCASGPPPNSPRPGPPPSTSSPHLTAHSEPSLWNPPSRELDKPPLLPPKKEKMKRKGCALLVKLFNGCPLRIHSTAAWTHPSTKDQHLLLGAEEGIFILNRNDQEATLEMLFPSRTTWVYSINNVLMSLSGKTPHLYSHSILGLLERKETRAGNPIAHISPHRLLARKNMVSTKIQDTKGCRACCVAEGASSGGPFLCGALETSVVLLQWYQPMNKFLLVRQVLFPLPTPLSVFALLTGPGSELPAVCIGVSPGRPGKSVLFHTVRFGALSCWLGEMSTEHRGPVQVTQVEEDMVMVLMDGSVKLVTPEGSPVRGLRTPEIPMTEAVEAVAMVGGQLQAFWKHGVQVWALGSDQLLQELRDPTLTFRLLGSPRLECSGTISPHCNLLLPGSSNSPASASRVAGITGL

SMILES	IC50 [1]	EC50 [2]
CC[C@](C)(O)c1cnc(OC2CC2)c2cnc(Nc3ccc4c(n3)C(C)(C)[C@@H](C)OC4=O)cc12 [Compound 34]	0.00253 µM	0.132 µM
CC[C@@](C)(O)c1cnc(OC2CC2)c2cnc(Nc3ccc4c(n3)[C@@H](C)C(C)(C)OC4=O)cc12 (single isomer, unassigned) [Compound 31]	0.00042 µM	0.047 µM
C[C@@H]1c2nc(Nc3cc4c(C(C)(C)O)cnc(O[C@H]5C[C@@H](S(C)(=O)=O)C5)c4cn3)ccc2C(=O)OC1(C)C [Compound 60]	0.00029 µM	0.065 µM
CC[C@](C)(O)c1cnc(OC2CC2)c2cnc(Nc3ccc4c(n3)C3(CC3)C(C)(C)OC4=O)cc12 (single isomer, unassigned) [Compound 40]	0.00209 µM	0.169 µM
CC[C@@](C)(O)c1cnc(O[C@H]2C[C@@H](S(C)(=O)=O)C2)c2cnc(Nc3ccc4c(n3)[C@@H](C)[C@H](C)OC4=O)cc12 (single isomer, unassigned) [Compound 61]	0.00039 µM	0.023 µM
CC[C@](C)(O)c1cnc(OC2CC2)c2cnc(Nc3ccc4c(n3)C3(CC3)[C@@H](C)OC4=O)cc12 (single isomer, unassigned) [Compound 27]	0.0017 µM	0.042 µM
